Experiments:
Test in all cases: Histone peptide microarray
Format in all cases: binding, human
BAZ2B = conditions: GST-tagged BAZ2B; sheet Array Heatmap; each array performed twice, total n = 4
How it was run: (§1)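 Using an optimized microarray protocol, purified GST-tagged PHD fingers were incubated at 0.5 μM on 293 histone peptides with single or multiple modifications, and array signal was recorded as the average of 4 replicates.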

BPTF (PB) = conditions: GST-tagged BPTF (PB = PHD + Bromodomain); sheet Array Heatmap; each array performed twice, total n = 4
How it was run: as §1

CHD4 (PPCC) = conditions: GST-tagged CHD4 (PPCC = Dual PHD + Dual Chromodomain); sheet Array Heatmap; each array performed twice, total n = 4
How it was run: as §1

CHD5 (PCC) = conditions: GST-tagged CHD5 (PCC = PHD + Dual Chromodomain); sheet Array Heatmap; each array performed twice, total n = 4
How it was run: as §1

CHD5 (PPCC) = conditions: GST-tagged CHD5 (PPCC = Dual PHD + Dual Chromodomain); sheet Array Heatmap; each array performed twice, total n = 4
How it was run: as §1

DIDO1 = conditions: GST-tagged DIDO1; sheet Array Heatmap; each array performed twice, total n = 4
How it was run: as §1

DPF2 (PPC2W2) = conditions: GST-tagged DPF2 (PPC2W2 = Dual PHD + C2W2-type Zn-finger); sheet Array Heatmap; each array performed twice, total n = 4
How it was run: as §1

ING1 = conditions: GST-tagged ING1; sheet Array Heatmap; each array performed twice, total n = 4
How it was run: as §1

ING4 = conditions: GST-tagged ING4; sheet Array Heatmap; each array performed twice, total n = 4
How it was run: as §1

ING5 = conditions: GST-tagged ING5; sheet Array Heatmap; each array performed twice, total n = 4
How it was run: as §1

KDM4C (TTP) = conditions: GST-tagged KDM4C (TTP = Tandem Tudor domain + PHD); sheet Array Heatmap; each array performed twice, total n = 4
How it was run: as §1

KDM5A (1) = conditions: GST-tagged KDM5A (1); sheet Array Heatmap; each array performed twice, total n = 4
How it was run: as §1

KDM5A (3) = conditions: GST-tagged KDM5A (3); sheet Array Heatmap; each array performed twice, total n = 4
How it was run: as §1

KDM5B (1) = conditions: GST-tagged KDM5B (1); sheet Array Heatmap; each array performed twice, total n = 4
How it was run: as §1

KDM5B (3) = system: KDM5B (3)
How it was run: as §1

KDM7A = conditions: GST-tagged KDM7A; sheet Array Heatmap; each array performed twice, total n = 4
How it was run: as §1

MORC3 (CW) = conditions: GST-tagged MORC3 (CW = CW-type Zn-finger); sheet Array Heatmap; each array performed twice, total n = 4
How it was run: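 Purified PHD finger domains fused to GST are screened against 293 synthetic histone peptides bearing one or several post-translational modifications. The protein is used at 0.5 μM, and the signal from four replicate arrays is averaged, with standard deviation given.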

PHF21A = conditions: GST-tagged PHF21A; sheet Array Heatmap; each array performed twice, total n = 4
How it was run: as §1

PHF23 = conditions: GST-tagged PHF23; sheet Array Heatmap; each array performed twice, total n = 4
How it was run: as §1

PHF2 = conditions: GST-tagged PHF2; sheet Array Heatmap; each array performed twice, total n = 4
How it was run: as §1

PHF8 = conditions: GST-tagged PHF8; sheet Array Heatmap; each array performed twice, total n = 4
How it was run: as §1

PHRF1 (RP) = conditions: GST-tagged PHRF1 (RP); sheet Array Heatmap; each array performed twice, total n = 4
How it was run: as §1

RAG2 = conditions: GST-tagged RAG2; sheet Array Heatmap; each array performed twice, total n = 4
How it was run: as §1

SP140L = conditions: GST-tagged SP140L; sheet Array Heatmap; each array performed twice, total n = 4
How it was run: as §1

TAF3 = conditions: GST-tagged TAF3; sheet Array Heatmap; each array performed twice, total n = 4
How it was run: as §1

TRIM66 (PB) = conditions: GST-tagged TRIM66 (PB = PHD + Bromodomain); sheet Array Heatmap; each array performed twice, total n = 4
How it was run: as §1

## H3K4me3: H3 1-20 [Peptide H3K4me3]
BAZ2B
  Array Heatmap signal (histone peptide microarray): 0.4249
BPTF (PB)
  Array Heatmap signal (histone peptide microarray): 0.3538
CHD4 (PPCC)
  Array Heatmap signal (histone peptide microarray): 0.5281
CHD5 (PCC)
  Array Heatmap signal (histone peptide microarray): 0.6826
CHD5 (PPCC)
  Array Heatmap signal (histone peptide microarray): 0.5167
DIDO1
  Array Heatmap signal (histone peptide microarray): 0.7775
DPF2 (PPC2W2)
  Array Heatmap signal (histone peptide microarray): 0.5958
ING1
  Array Heatmap signal (histone peptide microarray): 0.6386
ING4
  Array Heatmap signal (histone peptide microarray): 0.4513
ING5
  Array Heatmap signal (histone peptide microarray): 0.3493
KDM4C (TTP)
  Array Heatmap signal (histone peptide microarray): 0.4579
KDM5A (1)
  Array Heatmap signal (histone peptide microarray): 0.4187
KDM5A (3)
  Array Heatmap signal (histone peptide microarray): 0.6781
KDM5B (1)
  Array Heatmap signal (histone peptide microarray): 0.5666
KDM5B (3); GST-tagged KDM5B (3), sheet Array Heatmap, each array performed twice, total n = 4
  Array Heatmap signal (histone peptide microarray): 0.4784
KDM5B (3); peptide microarray, reader 0.5 μM, n = 4, comparison between K9ac + K18ac peptides
  binding preference: showed such a preference on peptide microarrays
KDM7A
  Array Heatmap signal (histone peptide microarray): 0.3234
MORC3 (CW)
  Array Heatmap signal (histone peptide microarray): 0.5878
PHF21A
  Array Heatmap signal (histone peptide microarray): 0.4238
PHF23
  Array Heatmap signal (histone peptide microarray): 0.678
PHF2
  Array Heatmap signal (histone peptide microarray): 0.8051
PHF8
  Array Heatmap signal (histone peptide microarray): 0.4526
PHRF1 (RP)
  Array Heatmap signal (histone peptide microarray): 0.4656
RAG2
  Array Heatmap signal (histone peptide microarray): 0.3757
SP140L
  Array Heatmap signal (histone peptide microarray): 0.3018
TAF3
  Array Heatmap signal (histone peptide microarray): 0.3678
TRIM66 (PB)
  Array Heatmap signal (histone peptide microarray): 0.622

Source: PMC6979384, “Characterization of the plant homeodomain (PHD) reader family for their histone tail interactions” (Epigenetics & Chromatin, 2020)
